Data reported in patent US9949489B2, “Methods for control of hemipteran insect stylet sheath structure formation” (The United States of America, as Represented by the …, priority 2015, dated 2018).

Legend:
[1] = system: D. citri; assay: Liquid ACP diet sandwich feeding assay (MFC): inhibition of de novo stylet sheath formation; format: in vivo, Diaphorina citri; design: key: −: No effect apparent inhibition of stylet sheath; +/−: inconclusive inhibition; +: apparent slight inhibition effect; ++: increased apparent inhibition effect; +++: high inhibition effect; ++++: very high inhibition effect; +++++: complete inhibition of sheath synthesis; conditions: small molecule in liquid ACP diet, about 24 h, concentration, pH, 25° C. per Table 3
Method: (§1) The next step was to determine if addition of cellulase to the diet of D. citri would interfere with stylet sheath formation. A D. citri diet is prepared as described by Hall, David et al., “Research toward an artificial diet for adult Asian citrus psyllid,” Annals of the Entomological Society of America 103.4:611-617 (2010). Approximately 25 D. citri were collected into polystyrene Cellstar 35 mm×10 mm dishes (Griener Bio-One, Monroe, N.C.) that were then sealed using a single layer of Parafilm® M (Pechiney Plastic Packaging Company, Chicago, Ill.). Approximately 99 μl of liquid ACP diet (e.g., diet lacking the solidifying agar component, see Hall, et. al., 2010, supra) was mixed with approximately 1 μl of cellulase (Sigma Aldrich, St. Louis, Mo.) and mixed. […] layer Parafilm® M surface, which was then covered with another layer of Parafilm® M to form a sandwich (e.g., Parafilm® M—liquid ACP diet with cellulase—Parafilm® M) to allow ACP to feed into the liquid ACP diet containing cellulase. This MFC was then incubated at about 25° C., at about 75% relative humidity, with a light:dark cycle of approximately 14:10 hours for a period of about 24 hours. After about 24 hours, the stylet sheaths were observed using an inverted microscope. FIGS. 3G through 3I are images of three separate locations where D. citri made attempts to feed into the liquid ACP diet containing approximately 1 unit/μl cellulase.
(§2) Because many biomolecule polymerizing enzymes require divalent cations as cofactors, the effect of ethylenediaminetetraacetic acid (EDTA), a chelator of divalent cations, on ACP SS formation was tested by adding EDTA to the previously described liquid ACP diet (see Hall et al., 2010, supra). The EDTA was added to the liquid ACP diet at a concentration of approximately 2 mM EDTA in diH2O. Approximately 200 D. citri were placed in plastic Petri dishes. The dishes were covered with a single layer of Parafilm® M to form MFC. […] The MFC plates were incubated at a temperature of about 25° C., a relative humidity of about 75%, and a light/dark cycle of about 14:10 hours duration. Following the 24-hour incubation, the fluid (either liquid ACP diet containing EDTA or just the liquid ACP diet) between the two sheets of plastic was harvested by using a sterile 5 ml syringe and 20-gauge needle which was pushed into the center of the Parafilm® M-fluid-Parafilm® M sandwich, and the fluid was then removed by syringe plunger suction. The harvested fluids were put into sterile 50 ml conical vials, placed at about −80° C. until frozen. Each vial of harvested fluid was then lypholyzed overnight. The lyophilized product was then solubilized in […], placed at about −80° C. until frozen, then each new vial was lyopholyzed overnight. The lyophilized product was then solubilized in approximately 15 μL of approximately 1× Laemmili buffer (Bio-Rad, Hercules, Calif.) containing approximately 5% 2-mercaptoethanol. The sample was loaded onto a sodium dodecyl sulfate polyacrylamide gel (SDS-PAGE) and underwent electrophoresis. The SDS PAGE gel was then stained with coomassie. Uncommon bands between the liquid ACP diet containing EDTA and liquid ACP diet without EDTA (negative control) lanes were cut out and analyzed by Orbitrap (Thermo Scientific, Waltham, Mass.) protein analysis, according to manufacturer's protocol.
(§3) After about 24-hour incubation, D. citri feeding sites were observed. […] See also Table 2 and Table 3, infra.

[2] = system: D. citri; assay: as above; format: in vivo, Diaphorina citri; conditions: for Effect on D. citri stylet sheath formation in liquid ACP diet: about 24 h, cellulase approx 1 unit/μl, BAPN 100 mM, EDTA approx 2 mM, proteases per Table 5; for Effect (on ACP stylet sheath formation): D. citri, GRAS small molecule in 175 μL liquid ACP diet at the mM concentration of Table 8, about 24 h
Method: as §1, §2, §3

[3] = system: Bemisia tabaci biotype B whitefly; assay: Liquid ACP diet sandwich feeding assay: stylet sheath formation by whitefly; format: in vivo; design: key to Inhibition of Sheath Formation: −: No effect apparent inhibition of stylet sheath; +/−: inconclusive inhibition; +: apparent slight inhibition effect; ++: increased apparent inhibition effect; +++: high inhibition effect; ++++: very high inhibition effect; +++++: complete inhibition of sheath synthesis
Method: The effects of a protease (bromelain and ficin) contained within the previously described artificial diet (liquid ACP diet) were tested on the Bemisia tabaci biotype B whitefly (a Aleyrodidae, an SSFHI) using approximately 100 live B. tabaci. Approximately 100 live B. tabaci were placed into polystyrene Cellstar 35 mm×10 mm dishes (Griener Bio-One, Monroe, N.C.) using the liquid ACP diet “sandwich” described in Example 2, using approximately 200 μL liquid ACP diet with or without a protease using the conditions described in Table 6 below. The MFCs were incubated at a temperature of about 25° C., a relative humidity of about 75%, and a light:dark cycle of approximately 14:10 hours. MFCs were maintained within clear Pyrex® baking dishes with the membrane (liquid ACP diet “sandwich”) side up, and the baking dish covered in a single layer of clear plastic wrap to prevent external contaminant interactions with the membrane surface during incubation. After about 24 hours incubation, the B. tabaci feeding sites were observed using an inverted microscope to see the effects of proteases in diet on the stylet sheaths for B. tabaci.
After performing the experiments using liquid ACP diet containing either bromelain or ficin experiment on B. tabaci, a similar experiment is performed substituting BAPN for the enzyme. […]

SMILES | Inhibition of Sheath Formation [1] | Effect (on ACP stylet sheath formation) [2] | also measured
O[C@H](CS)[C@H](O)CS (racemic) [Dithiothreitol Solution (DTT), Dithiothreitol] | ‘+++++’ (D. citri) |  | 
N#CCCN.O=C(O)/C=C/C(=O)O [3-aminopropionitrile fumarate salt] | ‘+++++’ (D. citri) |  | Effect on D. citri stylet sheath formation in liquid ACP diet [2]: prohibited the solidification of the ACP SS; Inhibition of Sheath Formation ([3]; WF (Bemisia tabaci, B biotype), BAPN 50 mM in diet): ‘+++++’ (WF); Effect on B. tabaci stylet sheath formation in liquid ACP diet ([3]; about 24 hours, bromelain or ficin 10 units in 250 μl of diet, BAPN 50 mM): prevents stylet sheath formation
OCc1ccc(O)cc1 [4-hydroxybenzyl alcohol] | ‘−’ (D. citri) |  | 
O=c1ccc2ccc(O)cc2o1 [7-HO-Coumarin, 7-hydroxy-coumarin] |  | Malformed sheaths | 
[NH4+].[NH4+].[SH-].[SH-].[S]=[Mo]=[S] [Ammonium Tetrathiomolybdate] | ‘+++++’ (D. citri) |  | Effect on D. citri stylet sheath formation in liquid ACP diet [2]: potent inhibitor of D. citri sheath formation
COc1ccc([C@@H]2CC(=O)c3c(O)cc(O[C@@H]4O[C@H](CO[C@@H]5O[C@@H](C)[C@H](O)[C@@H](O)[C@H]5O)[C@@H](O)[C@H](O)[C@H]4O)cc3O2)cc1 [Didymin] |  | Malformed sheaths | 
C[C@@H]1O[C@@H](OC[C@H]2O[C@@H](Oc3cc(O)c4c(c3)O[C@H](c3ccc(O)c(O)c3)CC4=O)[C@H](O)[C@@H](O)[C@@H]2O)[C@H](O)[C@H](O)[C@H]1O [Eriocitrin] |  | Malformed sheaths | Effect (on ACP stylet sheath formation) ([2]; listed as eriocitrin): malformation of sheaths
O=C1C[C@@H](c2ccc(O)c(O)c2)Oc2cc(O)cc(O)c21 [Eriodictyol] |  | Malformed sheaths | 
O=C(O)CN(CCN(CC(=O)O)CC(=O)O)CC(=O)O [Ethylenediaminetetraacetic acid (EDTA), Ethylenediaminetetraacetic acid] | ‘+++++’ (D. citri) |  | Effect on D. citri stylet sheath formation in liquid ACP diet [2]: can inhibit sheath formation
COc1ccc([C@@H]2CC(=O)c3c(O)cc(O)cc3O2)cc1O [Hesperetin] |  | Malformed sheaths | 
COc1ccc([C@@H]2CC(=O)c3c(O)cc(O[C@@H]4O[C@H](CO[C@@H]5O[C@@H](C)[C@H](O)[C@@H](O)[C@H]5O)[C@@H](O)[C@H](O)[C@H]4O)cc3O2)cc1O [Hesperidin] |  | No Effect | 
O=c1cc(CO)occ1O [Kojic Acid] | ‘++’ (D. citri) |  | 
CC1(C)O[C@H]2CC(=O)OC[C@]23[C@H]2CC[C@@](C)([C@@H](O[C@@H]4O[C@H](CO)[C@@H](O)[C@H](O)[C@H]4O)c4ccoc4)[C@@]4(O[C@@H]4C(=O)O)[C@]2(C)C(=O)C[C@@H]13 [Limonin glucoside] |  | Malformed sheaths | 
CC1(C)O[C@H]2CC(=O)OC[C@]23[C@H]2CC[C@@]4(C)[C@H](c5ccoc5)OC(=O)[C@H]5O[C@]54[C@]2(C)C(=O)C[C@@H]13 [Limonin] |  | Malformed sheaths | 
O=C1C[C@@H](c2ccc(O)cc2)Oc2cc(O)cc(O)c21 [Naringenin] |  | Malformed sheaths | 
C[C@@H]1O[C@@H](O[C@H]2[C@H](Oc3cc(O)c4c(c3)O[C@H](c3ccc(O)cc3)CC4=O)O[C@H](CO)[C@@H](O)[C@@H]2O)[C@H](O)[C@H](O)[C@H]1O [Naringin] |  | Malformed sheaths | 
O=C([O-])CN(CC(=O)[O-])CC(=O)[O-].[Na+].[Na+].[Na+] [Nitrilotriacetic acid trisodium salt] | ‘+++++’ (D. citri) |  | 
CC(=O)O[C@H]1CC(=O)OC(C)(C)[C@@H]2CC(=O)[C@]3(C)[C@H](CC[C@@]4(C)[C@H](c5ccoc5)OC(=O)[C@H]5O[C@]543)[C@@]12C [Nomilin] |  |  | Effect (on ACP stylet sheath formation) ([2]; listed as nomilin): inhibition of flange solidification
